The values that follow come from paper PMC13347698 (Analytical Chemistry, 2026).

Assay [1] deals with T1, native SARS-CoV-2 3CL^pro (Severe acute respiratory syndrome coronavirus 2, UniProt P0DTD1). Put plainly: biochemical. It counts as biochemical.
In another assay the target is wild-type 3CL^pro (Severe acute respiratory syndrome coronavirus 2, UniProt P0DTD1). Put plainly: biochemical. The settings on record: K D (wt). It counts as binding, SARS-CoV-2.
A further assay deals with SARS-CoV-2 3CL^pro. Conditions: cited from earlier work.
For a further assay, the system named is SARS-CoV 3CL^pro. Conditions: cited from earlier work.
For assay [2], the target named is T1, native SARS-CoV-2 3CL^pro. It is filed as biochemical.

What is called Ki is the dissociation constant of the complex between target and ligand, obtained from inhibition or displacement. The low end stands for tighter binding, the high end for weaker binding. As usually defined, the Kd is the constant that tells how readily two partners part at equilibrium. As a reminder, the IC50 is the concentration needed to halve the response being measured.

SMILES strings stand for the structures. Values joined by “and” are separate entries in the source; they are usually repeats but may differ in a detail not shown here. Equal entries are not always repeated.

Regarding `O=C(Nc1ccc(N(Cc2ccsc2)C(=O)Cn2nnc3ccccc32)cc1)C1CC1` [ML300], the Ki in assay [1] is 6.2 ± 0.4 µM. On wild-type 3CL^pro, the equilibrium dissociation constant (Kd) was 7.5 µM and 3.6 µM. Besides, in the assay with SARS-CoV-2 3CL^pro, the “IC50” value is reported as “low micromolar range”.

As to `CC(C)(C)c1ccc(N(C(=O)c2c[nH]cn2)[C@@H](C(=O)NC2CCCCC2)c2cccnc2)cc1` [X77], in assay [1], the inhibition mode result is reported as “predominantly competitive” and the α parameter worked out at 16 ± 3. In the assay on SARS-CoV 3CL^pro, the IC50 is 3.4 µM. Besides, in assay [2], the “binding kinetics (fast or slow-binding)” value was “fast”, the “covalent or noncovalent inhibition” value is given as “noncovalent”, the “reduction of reaction rate vi with respect to v0” value was “ca. 70%” and the “reduction of thermal power minimum with respect to the noninhibited reaction” value is recorded as “ca. 40%”. Moreover, the “tight or nontight binding” value in assay [2] is “nontight”.
